The values below come from US11229628B2, “TRPA1 and TRPV4 inhibitors and methods of using the same for organ-specific inflammation and itch” (Duke University, priority 2015, dated 2022).

Entries after “also recorded” stand apart in the source; their conditions may differ.

Experiment [1] has as its system mouse paw-pad skin. The experiment can be described thus: UVB-photodermatitis of mouse paw-pad skin after topical treatment (immunolabeling, histopathology, Edn1 qPCR). Type of experiment: in vivo. Here is the method:
A viscous solution of 68% EtOH/5% glycerol plus 1 mM or 5 mM GSK205 (none for control) was applied to hindpaws by rubbing in 20 μL, applied at time-points 1 hour and again 10 min before UV exposure.
Routine procedures were followed as described previously (Chen et al., 2009). Mice were perfused transcardially with 30 mL PBS, followed by 30 mL 4% paraformaldehyde. Tissues, including the L5 DRGs (bilateral), and footpad preparations, were dissected and post-fixed in 4% paraformaldehyde. Tissue blocks were further cryoprotected in 30% sucrose in PBS for 24-48 hours. For mouse TRPV4, keratin-specific antibodies, phospho-ERK, IL-6, IL-1β, CXCL5 and caspase-1, tissue was prepared as frozen blocks and subsequently sectioned on a cryostat. For CD68, CD15 (neutrophil elastase) and CD3, mouse skin was prepared by 2% PFA perfusion. Footpad and DRG sections (both at 6-10 μm) were thaw-mounted, blocked with 5% normal goat serum (NGS; Jackson), then incubated overnight at 4° C. with the following primary antibodies: rabbit anti-TRPV4 (1:300; Abcam), mouse anti-keratin 14 (1:300; Abcam against C-terminal peptide beyond residue 850); rabbit anti-keratin 14 (1:1000; Fuchs-Lab), rabbit anti-phosph-ERK1/2 (1:500; Cell signaling technologies), goat anti-IL-1β (1:800; Abcam), goat anti-IL-6 (1:200; Santa Cruz Biotechnology Inc); rabbit anti-caspase-1 (1:200; Biovision Research Products, CA); goat anti-mouse LIX/CXCL5 (1:200; R&D Systems Inc), anti-CD68, anti-[…], and anti-CD3 (AbDSerotec). Immunodetection was accomplished with appropriate fluorescently-labeled secondary antibodies (AlexaFluor595, AlexaFluor488-conjugated antibodies at 1:600; Invitrogen; for CD15 biotinylated secondary antibody from donkey, 1:400 followed by rhodamine-streptavidine 1:250), or with peroxidase-linked detection reagents (for CD68) for 2 hours at room-temperature. Sections were rinsed, mounted, and cover-slipped with fluoromount (Sigma). Digital micrographs were obtained using a BX61 Olympus upright microscope, also with a Zeiss LSM510 confocal, both equipped with high-res CCD camera, and acquired with constant exposure settings, using ISEE or Zeiss Zen software. Morphometric analysis was conducted using ImageJ freeware (v1.45) with tailored regions-of-interest that spared the nuclear compartment. ImageJ was also used for determination of DRG surface area.
In view of TRPV4-dependence of ET/Edn1 expression in skin, we measured Edn1 mRNA abundance in GSK205 vs. vehicle treated paw-pad skin. […] In striking contrast, and in keeping with histopathology, Edn1 mRNA-expression in GSK205 topically-treated skin was found unchanged.
We also tested the response of down-stream UVB effector mechanisms to GSK205 treatment in vivo.
In general terms: Real-time PCR tracks product formation cycle by cycle.

For experiment [2], the system named is periostin secretion by keratinocytes. Description: Periostin secretion by keratinocytes in response to histamine. Type of experiment: cell-based. From the text: As detailed in the Examples, secretion of periostin (93 kDa protein) by keratinocytes in response to histamine exposure is dependent on TRPV4. […] Periostin has a role in chronic allergic skin inflammation and also pathologic-fibrotic remodeling of the skin. Histamine activates TRPV4 channels via specific activation of histamine H1R-receptors in keratinocytes. This TRPV4-dependent calcium influx regulates release of periostin from keratinocytes. In terms of fibrotic tissue remodeling of organs, TRPV4 channels expressed by fibroblasts may have a role in lung fibrosis evoked by bleomycin, which may relate to fibroblasts elsewhere, including skin fibroblasts and synovial fibroblasts. Inhibitors as detailed herein may potently block TRPV4 activation in keratinocytes and also skin fibroblasts. Based on the above signaling mechanisms, this will attenuate and prevent fibrotic responses in the skin, also chronic skin-remodeling tissue responses mediated by endogenous pathogenetic mediator molecules such as periostin. As for synovia of the joint, one response to joint trauma is development of synovial fibrosis and contracture. Synoviocytes, synovial fibroblasts and infiltrating inflammatory cells may have roles in this maladaptive response, as all of these cells are known to express TRPV4. […]

In the case of `CN(CCc1ccc(Nc2nc(-c3cccnc3)cs2)cc1)Cc1ccccc1` [GSK205], in experiment [1] (topical 5 mM GSK205), the “histopathology of UVB-photodermatitis” value is reported as “virtual elimination of inflammation; also recorded: markedly reduced inflammatory infiltrate”, the “keratinocyte expression of CXCL5 in UVB-exposed footpad” value is reported as “significant blocks; also recorded: attenuates”, the “keratinocyte expression of IL-1β in UVB-exposed footpad” value is listed as “failed to upregulate; also recorded: attenuates” and the “keratinocyte expression of IL-6 in UVB-exposed footpad” value is reported as “significant blocks; also recorded: attenuates”. In addition, in experiment [1] (topical 5 mM GSK205, 2 hour and 24 hour time-points), the “Edn1 mRNA expression in paw-pad skin after UVB” value is “unchanged; also recorded: complete lack of this regulation”. Moreover, the “secretion of periostin by histamine-stimulated keratinocytes” value in experiment [2] is recorded as “completely eliminated”.
